Measurements from US10077209B2, “Glazing unit comprising a hydrophilic layer having an improved scratch resistance” (SAINT-GOBAIN GLASS FRANCE, priority 2013, dated 2018).

Experiment: Solubility of bis-urea monomers in diacetone alcohol (DAA)
Type: physicochemical
Settings: solvent diacetone alcohol
Method: Three bis-urea monomers were synthesized from toluene-2,4-diisocyanate (TDI) on the one hand, 6-amino-1-hexanol, 2-amino-1-butanol and 2-aminopropanol on the other hand, all purchased from Aldrich. The TDI was stored at 4° C. with the aim of preventing side reactions. The dichloromethane was obtained from VWR and distilled and dried before use. The table below indicates the No. assigned to each bis-urea in the rest of the example, the starting products for its synthesis, a schematic representation of its formula and its solubility in DAA.

| Solubility in DAA [% by wt.] | SMILES |
| --- | --- |
| 8 | Cc1ccc(NC(=O)NCC(C)O)cc1NC(=O)NCC(C)O (stereo not drawn) [Bis-urea1] |
| 7.5 | Cc1ccc(NC(=O)NCCCCCCO)cc1NC(=O)NCCCCCCO [Bis-urea4] |
| 2.4 | CCC(CO)NC(=O)Nc1ccc(C)c(NC(=O)NC(CC)CO)c1 (stereo not drawn) [Bis-urea5] |
